In US11390900B2, “Antimicrobial cartridges and processes for multiplexed antimicrobial susceptibility testing” (priority 2018, dated 2022):
Values after ≈ are worked out from the molar mass of the structure shown. Like-named read-outs stand apart in the source and are kept apart here.

Legend:
[1] = test system: patient sample microbes; conditions: antimicrobial panel 1, MIC range; cited from earlier work
[2] = test system: patient sample microbes; experiment: AST MIC results for antimicrobial panel 1 (384-well panel from Master Plate vs 96-well panel); assay type: cell-based; conditions: for MICs obtained from panel made from Master Plate: antimicrobial panel 1, 384 well patient cartridge; for MICs obtained from 96-well Antibiotic Panel: antimicrobial panel 1, standard 96 well AST assay plate
Description: (§1) An assay setup comprises preparation of patient (target) cartridge by dispensing antimicrobials were from the master cartridge or intermediate serial dilution cartridges into one or more 384 reservoir patient cartridge, each antimicrobial in about 7 serial dilutions in triplicate, and covering the dynamic range of each antimicrobial that is known to be effective and therefore should be reported. The dilution range included the expected minimum inhibitory concentration (MIC) for each antimicrobial. But most importantly, dilution ranges, that is, antimicrobial concentrations beyond the range known to be effective are included in the patient cartridge as per the present invention.
(§2) The remaining reservoirs of the 384 well patient cartridge are utilized for setting up test controls: a no-antimicrobial control (negative control) was included for each antimicrobial compound; and a positive control was included for each antimicrobial set, where a microorganism that is not susceptible to the antimicrobial was added to the well. Each control set was also dispensed at least in duplicate per 384 well cartridge. Additional test controls may be included as deemed necessary by one of skill in the art. Equal amount of a patient sample was dispensed to each of the wells in the cartridge, except in the wells designated for no-sample control, if included. The patient cartridge was ready for determination of susceptibility of microbes from the patient sample to the twelve antimicrobials at the range of concentrations applied, simultaneously. Multiple such plates can be set up in parallel for testing samples from multiple patients, each patient sample per plate. An AST assay was performed on the prepared patient cartridges.
(§3) First, three master plates are loaded by the user onto chilled plate holders (set to 4° C.). These consist of one Broad Spectrum, one Gram-Positive and one Gram-Negative antibiotic plate. Next the bulk reagents and pipette tips are loaded on tube rack. Master and bulk reagent pipette tips and sample dilution tray are reloaded every 12 samples. For every set of tests, up to four Patient Samples in tubes and up to four 384-well Target Plates (Patient plate) are loaded.
(§4) Antibiotics are transferred from Broad Spectrum Master Plate to Target Plate(s). Antibiotics are “stamped” according to FIG. 10A-B. The inoculator tips should be placed back in the same position of the Broad Spectrum Tip Box for use on subsequent target plates, but should only be used for same antibiotics to avoid cross contamination.
(§5) Antimicrobials are transferred from Gram-Positive OR Gram-Negative Master Plate to Target Plate(s) and the antibiotics are “stamped” according to FIG. 11A-B. The inoculator should place tips back in the same position of the correct tip box for use on subsequent target plates. Good care is taken such that any cross contamination is prevented.
(§6) Using new tips from the Sample Tip Box, 50 μL of diluted patient sample are transferred into Target Plate according to Table Four, this is done with a “jet dispense” to avoid cross contamination. After the Patient Sample has been transferred to each well on the Target Plate, the tips should be disposed of to avoid cross contamination. The above steps are repeated for each additional Patient Sample and Target Plate.
(§7) Shown in Table 6 and Table 7, MIC results for antimicrobial panels 1 and 2 respectively using a master cartridge format and a 384 well patient cartridge (column 3) agrees reliably with that run by standard 96 well AST assay plate (right hand column).

[3] = test system: S. aureus 29213; conditions: MIC range, cited from earlier work
[4] = test system: K. pneumoniae 700603; conditions: MIC range, K. pneumoniae 700603, Gram negative panel; cited from earlier work
[5] = test system: E. coli 25922; conditions: MIC range, E. coli 25922, Gram negative panel; cited from earlier work
[6] = test system: patient sample microbes; experiment: AST MIC results for antimicrobial panel 2 (384-well panel from Master Plate vs 96-well panel); assay type: cell-based; conditions: for MICs obtained from panel made from Master Plate: antimicrobial panel 2, 384 well patient cartridge; for MICs obtained from 96-well Antibiotic Panel: antimicrobial panel 2, standard 96 well AST assay plate
Description: as §1, §2, §3, §4, §5, §6, §7

[7] = test system: clinical isolate of S. aureus; experiment: Broth microdilution reference method MIC; assay type: cell-based; conditions: Staphylococcus aureus, read-out: MICs obtained from the broth microdilution reference method
Procedure: The antibiotics shown are vancomycin, daptomycin, ceftaroline and levofloxacin, of which the MICs obtained from the broth microdilution reference method for this strain were 0.5, 0.25, 0.12, and 0.25 μg/ml, respectively. A clinical isolate of S. aureus was used. Data represents the TRF signal in RFUs. Graphs in the top row contain data from 384-well plates. Graphs in the bottom row contain data from 96-well plates.

[8] = test system: patient sample microbes; conditions: antimicrobial panel 2, MIC range; cited from earlier work
[9] = test system: E. faecalis 29212; conditions: MIC range, cited from earlier work
[10] = S. aureus 29213, Gram negative panel
[11] = S. aureus 29213, Gram positive panel
[12] = E. faecalis 29212, Gram positive panel
[13] = E. faecalis 29212, Gram negative panel

NCC[C@H](O)C(=O)N[C@@H]1C[C@H](N)[C@@H](O[C@H]2O[C@H](CN)[C@@H](O)[C@H](O)[C@H]2O)[C@H](O)[C@H]1O[C@H]1O[C@H](CO)[C@@H](O)[C@H](N)[C@H]1O [Amikacin]
Quality Control Range [1]: 0.5-4
MICs obtained from panel made from Master Plate [2]: 4 µg/mL
MICs obtained from 96-well Antibiotic Panel [2]: 4 µg/mL
CLSI-Defined QC Range [3, 10]: 1 to 4 µg/mL

CC1(C)S[C@@H]2[C@H](NC(=O)[C@H](N)c3ccc(O)cc3)C(=O)N2[C@H]1C(=O)O [Amoxicillin (alone), Amoxicillin]
CLSI-Defined QC Range [4]: >128 µg/mL

CC[C@H]1OC(=O)[C@H](C)[C@@H](O[C@H]2C[C@@](C)(OC)[C@@H](O)[C@H](C)O2)[C@H](C)[C@@H](O[C@@H]2O[C@H](C)C[C@H](N(C)C)[C@H]2O)[C@](C)(O)C[C@@H](C)CN(C)[C@H](C)[C@@H](O)[C@]1(C)O [Azithromycin]
CLSI-Defined QC Range [3, 11]: 0.5 to 2 µg/mL

C[C@H]1[C@H](NC(=O)/C(=N\OC(C)(C)C(=O)O)c2csc(N)n2)C(=O)N1S(=O)(=O)O [Aztreonam]
CLSI-Defined QC Range [5]: 0.06 to 0.25 µg/mL
CLSI-Defined QC Range [4]: 8 to 64 µg/mL

Cc1nnc(SCC2=C(C(=O)O)N3C(=O)[C@@H](NC(=O)Cn4cnnn4)[C@H]3SC2)s1 [Cefazolin]
CLSI-Defined QC Range [5]: 1 to 4 µg/mL

CO/N=C(\C(=O)N[C@@H]1C(=O)N2C(C(=O)[O-])=C(C[N+]3(C)CCCC3)CS[C@H]12)c1csc(N)n1 [Cefepime]
Quality Control Range [1]: 0.015-0.12
MICs obtained from panel made from Master Plate [2]: ≤ 0.25 µg/mL
MICs obtained from 96-well Antibiotic Panel [2]: ≤ 0.03 µg/mL
CLSI-Defined QC Range [3, 10]: 1 to 4 µg/mL

CO/N=C(\C(=O)N[C@@H]1C(=O)N2C(C(=O)O)=C(COC(C)=O)CS[C@H]12)c1csc(N)n1 [Cefotaxime]
CLSI-Defined QC Range [3, 10]: 1 to 4 µg/mL

CCO/N=C(\C(=O)N[C@@H]1C(=O)N2C(C(=O)[O-])=C(Sc3nc(-c4cc[n+](C)cc4)cs3)CS[C@H]12)c1nsc(N)n1 [Ceftaroline]
MICs obtained from panel made from Master Plate [6]: 0.5 µg/mL
MICs obtained from 96-well Antibiotic Panel [6]: 0.25 µg/mL
MIC ([7]; clinical isolate of S. aureus): 0.12 µg/mL (≈ 0.198 µM)

CO/N=C(\C(=O)N[C@@H]1C(=O)N2C(C(=O)O)=C(CSc3nc(=O)c(=O)[nH]n3C)CS[C@H]12)c1csc(N)n1 [Ceftriaxone]
MICs obtained from panel made from Master Plate [6]: 2 µg/mL
MICs obtained from 96-well Antibiotic Panel [6]: 4 µg/mL
Quality Control Range [8]: 1-8
Quality Control Range [1]: 0.03-0.12
MICs obtained from panel made from Master Plate [2]: ≤ 0.125 µg/mL
MICs obtained from 96-well Antibiotic Panel [2]: ≤ 0.12 µg/mL
CLSI-Defined QC Range [3, 10]: 1 to 8 µg/mL

CO/N=C(\C(=O)N[C@@H]1C(=O)N2C(C(=O)O)=C(COC(N)=O)CS[C@H]12)c1ccco1 [Cefuroxime]
CLSI-Defined QC Range [5]: 2 to 8 µg/mL

CCCCCCCCCC(=O)N[C@@H](Cc1c[nH]c2ccccc12)C(=O)N[C@H](CC(N)=O)C(=O)N[C@@H](CC(=O)O)C(=O)N[C@@H]1C(=O)NCC(=O)N[C@@H](CCCN)C(=O)N[C@@H](CC(=O)O)C(=O)N[C@H](C)C(=O)N[C@@H](CC(=O)O)C(=O)NCC(=O)N[C@H](CO)C(=O)N[C@@H]([C@H](C)CC(=O)O)C(=O)N[C@@H](CC(=O)c2ccccc2N)C(=O)O[C@@H]1C [Daptomycin]
CLSI-Defined QC Range [9, 12]: 1 to 4 µg/mL
MIC ([7]; clinical isolate of S. aureus): 0.25 µg/mL (≈ 0.154 µM)

Nc1nc(-n2cc(C(=O)O)c(=O)c3cc(F)c(N4CC(O)C4)c(Cl)c32)c(F)cc1F [Delafloxacin]
CLSI-Defined QC Range [9, 12]: 0.016 to 0.12 µg/mL

CN(C)[C@@H]1C(O)=C(C(N)=O)C(=O)[C@@]2(O)C(O)=C3C(=O)c4c(O)c(NC(=O)CN5CCCC5)cc(F)c4C[C@H]3C[C@@H]12 [Eravacycline]
CLSI-Defined QC Range [9, 12]: 0.016 to 0.06 µg/mL
CLSI-Defined QC Range [5]: 0.03 to 0.12 µg/mL

C[C@@H](O)[C@H]1C(=O)N2C(C(=O)O)=C(S[C@@H]3CN[C@H](C(=O)Nc4cccc(C(=O)O)c4)C3)[C@H](C)[C@H]12 [Ertapenem]
CLSI-Defined QC Range [3, 10]: 0.06 to 0.25 µg/mL

CC[C@H]1OC(=O)[C@H](C)[C@@H](O[C@H]2C[C@@](C)(OC)[C@@H](O)[C@H](C)O2)[C@H](C)[C@@H](O[C@@H]2O[C@H](C)C[C@H](N(C)C)[C@H]2O)[C@](C)(O)C[C@@H](C)C(=O)[C@H](C)[C@@H](O)[C@]1(C)O [Erythromycin]
CLSI-Defined QC Range [9, 12]: 1 to 4 µg/mL

C[C@H]1COc2c(N3CCN(C)CC3)c(F)cc3c(=O)c(C(=O)O)cn1c23 [Levofloxacin]
MICs obtained from panel made from Master Plate [6]: ≤ 0.25 µg/mL
MICs obtained from 96-well Antibiotic Panel [6]: 0.25 µg/mL
MICs obtained from panel made from Master Plate [2]: ≤ 0.25 µg/mL
MICs obtained from 96-well Antibiotic Panel [2]: ≤ 0.06 µg/mL
MIC ([7]; clinical isolate of S. aureus): 0.25 µg/mL (≈ 0.692 µM)

CC(=O)NC[C@H]1CN(c2ccc(N3CCOCC3)c(F)c2)C(=O)O1 [Linezolid]
MICs obtained from panel made from Master Plate [6]: 2 µg/mL
MICs obtained from 96-well Antibiotic Panel [6]: 2 µg/mL
Quality Control Range [8]: 1-4
CLSI-Defined QC Range [3, 11]: 1 to 4 µg/mL

C[C@@H](O)[C@H]1C(=O)N2C(C(=O)O)=C(S[C@@H]3CN[C@H](C(=O)N(C)C)C3)[C@H](C)[C@H]12 [Meropenem]
CLSI-Defined QC Range [9, 13]: 2 to 8 µg/mL

Cc1onc(-c2ccccc2)c1C(=O)N[C@@H]1C(=O)N2[C@@H]1SC(C)(C)[C@@H]2C(=O)O [Oxacillin]
MICs obtained from panel made from Master Plate [6]: 0.5 µg/mL
MICs obtained from 96-well Antibiotic Panel [6]: 0.5 µg/mL
Quality Control Range [8]: 0.12-0.5
CLSI-Defined QC Range [3, 11]: 0.12 to 0.5 µg/mL

CO[C@H]1/C=C/O[C@@]2(C)Oc3c(C)c(O)c4c(O)c(c(/C=N/N5CCN(C)CC5)c(O)c4c3C2=O)NC(=O)/C(C)=C\C=C\[C@H](C)[C@H](O)[C@@H](C)[C@@H](O)[C@@H](C)[C@H](OC(C)=O)[C@@H]1C [Rifampin]
MICs obtained from panel made from Master Plate [6]: ≤ 0.25 µg/mL
MICs obtained from 96-well Antibiotic Panel [6]: 0.004 µg/mL
CLSI-Defined QC Range [9, 12]: 0.5 to 4 µg/mL
Quality Control Range [8]: 0.004-0.015

Cn1nnc(-c2ccc(-c3ccc(N4C[C@H](CO)OC4=O)cc3F)cn2)n1 [Tedizolid]
MICs obtained from panel made from Master Plate [6]: 0.25 µg/mL
MICs obtained from 96-well Antibiotic Panel [6]: 0.5 µg/mL
Quality Control Range [8]: 0.25-1

NC[C@H]1O[C@H](O[C@H]2[C@H](O)[C@@H](O[C@H]3O[C@H](CO)[C@@H](O)[C@H](N)[C@H]3O)[C@H](N)C[C@@H]2N)[C@H](N)C[C@@H]1O [Tobramycin]
CLSI-Defined QC Range [9, 13]: 8 to 32 µg/mL
Quality Control Range [1]: 0.25-1
MICs obtained from panel made from Master Plate [2]: 0.5 µg/mL
MICs obtained from 96-well Antibiotic Panel [2]: 1 µg/mL

COc1cc(Cc2cnc(N)nc2N)cc(OC)c1OC [Trimethoprim]
CLSI-Defined QC Range [3, 11]: 1 to 4 µg/mL

CN[C@H](CC(C)C)C(=O)N[C@H]1C(=O)N[C@@H](CC(N)=O)C(=O)N[C@H]2C(=O)N[C@H]3C(=O)N[C@H](C(=O)N[C@H](C(=O)O)c4cc(O)cc(O)c4-c4cc3ccc4O)[C@H](O)c3ccc(c(Cl)c3)Oc3cc2cc(c3O[C@@H]2O[C@H](CO)[C@@H](O)[C@H](O)[C@H]2O[C@H]2C[C@](C)(N)[C@H](O)[C@H](C)O2)Oc2ccc(cc2Cl)[C@H]1O [Vancomycin]
CLSI-Defined QC Range [3, 11]: 0.5 to 2 µg/mL
MIC [7]: 0.5 µg/mL (≈ 0.345 µM)

Penicillin
CLSI-Defined QC Range [3, 11]: 0.25 to 2 µg/mL
